Consider twelve compounds from patent publication US6610516B1, “Cell culture process” (Genentech, Inc., priority 1999, dated 2003).

In test [1] the test system is t-PA site occupancy at Asn-184. Nature of the test: Type I/Type II t-PA assay (RP-HPLC) of supernatant from rht-PA-producing CHO cell cultures. It counts as cell-based, Chinese Hamster. To be noted: for Decrease of t-PA site occupancy at 500 µM: Cricetulus griseus, CHO, 0.5 mM each; for Decrease of t-PA site occupancy at 500 µM / t-PA site-occupancy, effect of nucleotide sugar precursors: days 4-6 (FIG. 12); for t-PA site-occupancy, effect of nucleotide sugar precursors: increased availability; for t-PA site-occupancy, effect of further butyrate increase: 1.5 mM butyrate; for t-PA site occupancy compared to control with no cell-cycle inhibitor: 3-4 days, quinidine 90 μM, thymidine 250 μg/mL at inoculation (FIG. 9); for Increase of t-PA site-occupancy: 1, 10 or 100 nM hormone, day 7 (FIG. 13). The procedure: Type I/Type II t-PA assay:
1. Thaw cell culture supernatant sample (If whole broth, spin out cells in centrifuge.)
2. Add 2 μl freshly thawed plasminogen to 400 μl of sample.
3. Incubate at 37° C. for 60 minutes.
4. Add 20 μl freshly-thawed 1 M DTT and 400 μl 8 M guanidine-HCl/50 mM TRIS/3.2 mM EDTA solution.
5. Incubate at 37° C. for 15 minutes.
6. Transfer to vial and load 250 μl for assay on HP 1090™ HPLC using the following conditions:
ZORBAX™ C8 column at 40° C.;
Monitoring of eluents by fluorescence (excitation at 275 nm, emission at 340 nm);
Running each sample with the following 70-minute method where eluent A is 0.1% trifluoroacetic acid (TFA) in water and eluent B is 0.1% TFA in acetonitrile:
5 to 35 min.—a linear gradient from 75% A to 60% A
45 min. to 70 min.—75% A to re-equilibrate the column
Type I/Type II fragments elute after approximately 25 minutes, and peak areas are integrated to determine relative quantities.
Recombinant ht-PA-producing CHO cells were carried in spinner flasks passaged every 3 or 4 days (at a density of 0.1% packed cell volume (PCV)) in selective medium (PS-20 basal medium supplemented with […] methotrexate, 10 mg/L recombinant human insulin (rh-insulin), 0.1 ml/L trace elements, and 0.05 ml/L lipid-ethanol). Sufficient culture was removed to seed 15 ml of medium at 0.2% PCV, and placed in a 50 ml sterile Falcon tube. The culture was centrifuged for 10 minutes at 700-1000 rpm and the supernatant was poured off. Upon addition of 15 ml of fresh selective medium, the culture was agitated gently to resuspend cells. Five ml of culture was placed in three T-25 flasks (25 cm^2 T-flasks). The caps were left loosened to allow equilibration with incubator atmosphere and the flasks were placed in a 33° C. or 31° C. incubator with 5% carbon dioxide. After 5 to 8 days of incubation, the cells were counted using a hemacytometer and/or by checking packed cell volume, and viability was checked using trypan blue. The culture was removed from the flasks, centrifuged for 10 minutes at 2000-2200 rpm, and the supernatant was assayed for rht-PA glycosylation. Alternatively to the T-25 flasks, the cells were cultured using 60-mm cell culture plates in triplicates.
The mini-fermentor experiments were performed under standard t-PA production conditions in fed-batch mode as noted herein in 5-liter stirred tank bioreactors (Applikon, Foster City, Calif.). The temperature was shifted to 33° C. or 31° C. on day 2 of the production phase.
(§1) The quantity of cells needed for a 0.2% packed cell volume seed density was centrifuged at approximately 700×g for 10 minutes, and resuspended in 25 cm^2 T-flasks in the appropriate fresh medium for each test case. The T-flasks were set up in triplicate with 5 mL in each flask and incubated for 3 to 4 days at 37° C. and 95% air 5% CO2. Sodium butyrate was added to a concentration of 0.375 mM, 0.75 mM, or 1.5 mM at the time of inoculation for the 25 cm^2 T-flasks. Cells were also cultured in spinner flasks at volumes of 100 ml with similar butyrate concentrations to the T-flask cases. For fermentor experiments, butyrate was added on the second day of the experiments. T-flask cultures were also carried out at 33° C. and 37° C. with no butyrate additions. […] T-PA site-occupancy was analyzed using the method of Example 1.
(§2) Cells were cultured as for the sodium butyrate experiment described in Example 2. Thymidine was dissolved in water and sterile filtered for a 33-36× stock solution. […] T-PA site-occupancy was analyzed using the method of Example 1.
All experiments were done in 60-mm culture dishes using the procedure described in Example 1 except that a Mn salt, Fe salt, nucleotide sugar precursor, or hormone was added to the growth medium during the growth phase, with Mn or Fe salt or nucleotide sugar precursor added on day 1.

Another test relates to CHO cells. Nature of the test: Cell-cycle analysis (propidium iodide flow cytometry) of rht-PA-producing CHO cell cultures. It is filed as cell-based, Chinese Hamster. To be noted: T-flasks, 37° C., thymidine 250 μg/mL; for Cells in G0/G1 phase: 3-4 days, added at inoculation: quinidine 90 μM, control 53.91%; for Cells in S phase: control 34.37%.
Excerpt: As used herein, a “cell-cycle inhibitor that blocks cells in the G0/G1 phase of growth” is a molecule that causes cells to accumulate in the G0/G1 phase of growth. This can be determined by cell cycle analysis, i.e., uniform suspensions of nuclei are stained with propidium iodide (PI) using the detergent-trypsin method of Vindelov et al., Cytometry, 3: 323-327 (1983) to determine relative cellular DNA content by flow cytometric analysis. Events are gated using doublet discrimination to exclude doublets, and the data are modeled using ModFit LT Cell Cycle Analysis™ software (Verity Software House).
as §1, §2
(In general: A flow cytometer gives signals particle by particle.)

Another test concerns the target fibrin. As to conditions: in vitro; cited from earlier work.

Turning to `[Cl][Mn][Cl]` [manganese, MnCl2], the “Increase of t-PA Type I content (site-occupancy) over 3 nM control” value in test [1] (MnCl2 10 nM-100 μM, 60-mm dishes, 37° C., days 4-6 (FIG. 10)) is recorded as “about 2.5%”.

`O=c1ccn([C@@H]2O[C@H](CO)[C@@H](O)[C@H]2O)c(=O)[nH]1` [uridine] returned a Decrease of t-PA site occupancy at 500 µM in test [1] (60-mm dishes, 37° C.) of roughly 2%.

For the compound ferric citrate, the “Increase of t-PA site occupancy” value in test [1] (10-100 μM ferric citrate, 60-mm dishes, 37° C., days 4-6 (FIG. 11)) is reported as “up to 4%”.

In the case of `O=c1[nH]cnc2nc[nH]c12` [hypoxanthine], the “t-PA site-occupancy, effect of nucleotide sugar precursors” value in test [1] (60-mm dishes, 37° C.) is on record as “did not improve site-occupancy”.

As to `CCCC(=O)[O-].[Na+]` [sodium butyrate], the “Increase of Type I content compared to no butyrate” value in test [1] (0.75 mM butyrate, 60-mm culture plates (FIG. 6)) is reported as “about 1%”. For the same compound, the “t-PA site-occupancy, effect of further butyrate increase” value in test [1] (31° C., 60-mm culture plates (FIG. 6)) is listed as “increased it”; in test [1] (37° C. and 33° C., 60-mm culture plates (FIG. 6)), “lowered site-occupancy”. Moreover, in test [1] (0.375 to 1.5 mM at inoculation, T-flasks, 37° C. (FIG. 5)), the “t-PA site-occupancy, effect of butyrate” value is “increased t-PA site-occupancy”. In addition, the “Type I content, effect of increasing butyrate from 0.75 to 1.5 mM” value in test [1] (5-liter bioreactors, days 5-7, 37° C. and 33° C. (FIG. 7)) is reported as “decreased the Type I content”.

Turning to `C=C[C@H]1C[N@@]2CC[C@H]1C[C@@H]2[C@@H](O)c1ccnc2ccc(OC)cc12` [Quinidine, quinidine], the “t-PA site occupancy compared to control with no cell-cycle inhibitor” value in test [1] (T-flasks, 37° C.) is “increased site occupancy”. Further, the “Cells in G0/G1 phase” value in the test with CHO cells amounted to 67.34% at 84.65; with CHO cells (listed as quinidine), 67%. For the same compound, the “Cells in S phase” value with CHO cells (quinidine 90 μM) was 24.11%.

For the compound `N[C@@H](Cc1cc(I)c(Oc2ccc(O)c(I)c2)c(I)c1)C(=O)O` [tri-iodothyronine], the “Increase of t-PA site-occupancy” value in test [1] (60-mm dishes, 37° C.) is “about 2%”.

As to “t-PA: human tissue-type plasminogen activator, recombinant, produced in CHO cells; mixture of Type I and Type II glycoforms”, the “Kd of binding to fibrin” value at fibrin was “in the μM range”.

As for `Cc1cn([C@H]2C[C@H](O)[C@@H](CO)O2)c(=O)[nH]c1=O` [Thymidine, thymidine], in test [1] (T-flasks, 37° C.), the “t-PA site occupancy compared to control with no cell-cycle inhibitor” value is recorded as “decreased site occupancy”. Further, in test [1] (60-mm dishes, 37° C.), the “t-PA site-occupancy, effect of nucleotide sugar precursors” value is listed as “did not improve site-occupancy”. For the same compound, the “Cells in G0/G1 phase” value in the test on CHO cells is reported as 32.58% at 84.60; in the test with CHO cells (listed as thymidine), 33%. The “Cells in G2-M phase” value in the test with CHO cells (quinidine 90 μM, control 11.72%) turned out to be 10.09% at 165.36. In addition, the “Cells in S phase” value with CHO cells (quinidine 90 μM) is given as 57.33%.

In the case of `NCC(=O)O` [glycine], in test [1] (60-mm dishes, 37° C.), the “t-PA site-occupancy, effect of nucleotide sugar precursors” value is reported as “did not improve site-occupancy”.

For the compound `N[C@@H](Cc1cc(I)c(Oc2cc(I)c(O)c(I)c2)c(I)c1)C(=O)O` [thyroxine], the “Increase of t-PA site-occupancy” value in test [1] (60-mm dishes, 37° C.) was “about 2%”.

For the compound `Nc1nc2c(ncn2[C@@H]2O[C@H](CO)[C@@H](O)[C@H]2O)c(=O)[nH]1` [guanosine], the Decrease of t-PA site occupancy at 500 µM in test [1] (60-mm dishes, 37° C.) was roughly 2%.
